This passage reports EC50 results from patent US20140120060A1, “TREATMENT OF RHEUMATOID ARTHRITIS AND ASTHMA USING PI3 KINASE INHIBITORS” (INFINITY PHARMACEUTICALS, INC., priority 2012, published 2014).

SMILES strings stand for the structures. Where only a bound is given, the exact number is not on record here.

The experiment deals with B cell. Kind of experiment: B cell proliferation. It counts as cell-based.
As to `Cc1cccc2cc(Cn3nc(-c4cccc(O)c4)c4c(N)ncnc43)n(C)c(=O)c12` [Compound 124], the EC50 – broadly, the concentration that produces a half-maximal response – was under 1000 nM. Next, `Cc1ccncc1-n1c(Cn2nc(I)c3c(N)ncnc32)cc2cccc(C)c2c1=O` [Compound 78]: under 1000 nM; `CCc1ccccc1-n1c(Cn2nc(-c3cccc(O)c3)c3c(N)ncnc32)cc2cccc(C)c2c1=O` [Compound 88]: under 100 nM; `Cc1cccnc1-n1c(Cn2nc(-c3cc(O)cc(F)c3)c3c(N)ncnc32)cc2cccc(C)c2c1=O` [Compound 16]: under 100 nM.

`Cc1ccccc1-n1c(Cn2nc(-c3nn[nH]n3)c3c(N)ncnc32)cc2cccc(C)c2c1=O` [Compound 207] had an EC50 of under 10000 nM. `Cc1cccc2cc(C(C)Nc3ncnc4[nH]cnc34)n(-c3ccccc3)c(=O)c12` (stereo not drawn) [Compound 210] returned an EC50 of under 100 nM. Regarding `Cc1cccc2cc(C(C)Nc3ncnc4[nH]cnc34)n(C3CCCC3)c(=O)c12` (stereo not drawn) [Compound 231], the concentration for a half-maximal effect (EC50) was under 100 nM. `Cc1cccc2cc([C@H](C)Nc3nc(F)nc4[nH]cnc34)n(-c3ccccc3)c(=O)c12` [Compound 245] showed an EC50 of under 100 nM.

For `Cc1ccccc1-n1c(Cn2nc(C#C[C@@H](C)O)c3c(N)ncnc32)cc2cccc(F)c2c1=O` [Compound 43], the EC50 was under 10000 nM. `Cc1cccc2cc(C(C)Nc3ncnc4[nH]cnc34)n(-c3c(F)cccc3F)c(=O)c12` (stereo not drawn) [Compound 216] registered an EC50 of under 100 nM. On to `CC(=O)Nc1nc2ccc(-c3nn(Cc4cc5cccc(C)c5c(=O)n4-c4ccccc4C)c4ncnc(N)c34)cc2s1` [Compound 53], for which the EC50 was under 100 nM.

`CC(=O)Nc1nc2ccc(-c3nn(Cc4cc5cccc(Cl)c5c(=O)n4C(C)C)c4ncnc(N)c34)cc2s1` [Compound 157] registered an EC50 of under 100 nM. On to `CC(=O)Nc1nc2ccc(-c3nn(Cc4cc5cccc(C)c5c(=O)n4-c4cccc(F)c4)c4ncnc(N)c34)cc2s1` [Compound 178], for which the EC50 was under 100 nM. Consider `Cc1ccccc1-n1c(Cn2nc(-c3cc(O)cc(F)c3)c3c(N)ncnc32)cc2cccc(F)c2c1=O` [Compound 55], for which the EC50 was under 100 nM.

With `CC(C)n1c(Cn2nc(-c3cccc(O)c3)c3c(N)ncnc32)cc2cccc(Cl)c2c1=O` [Compound 137], the 50% effective concentration (EC50) is under 100 nM.

`Cc1cccc2cc([C@H](C)Nc3ncnc4[nH]cc(F)c34)n(-c3ccccc3)c(=O)c12` [Compound 254] showed an EC50 of under 100 nM.

With `Cc1cccc2cc([C@@H](C)Nc3ncnc4[nH]cnc34)n(C3CC3)c(=O)c12` [Compound 199], the 50% effective concentration (EC50) was over 10000 nM.

As for `Cc1cccc2cc(Cn3nc(-c4cn[nH]c4)c4c(N)ncnc43)n(-c3cccc(F)c3)c(=O)c12` [Compound 166], the EC50 was under 100 nM.

`COc1ccccc1-n1c(Cn2nc(-c3cc(O)cc(F)c3)c3c(N)ncnc32)cc2cccc(C)c2c1=O` [Compound 84] registered an EC50 of under 100 nM. Compound `Cc1cccc2cc(Cn3cnc4c(N)ncnc43)n(-c3ccccc3F)c(=O)c12` [Compound 1] gave an EC50 of under 10000 nM.

In turn, `COc1cccc(-c2nn(Cc3cc4cccc(C)c4c(=O)n3-c3ccccc3C)c3ncnc(N)c23)c1` [Compound 106] had an EC50 of under 1000 nM.

Regarding `Cc1cccc2cc([C@H](C)Nc3ncnc4[nH]nc(C(N)=O)c34)n(-c3ccccc3)c(=O)c12` [Compound 256], the EC50 is under 100 nM.

`CC(=O)Nc1nc2ccc(-c3nn(Cc4cc5cccc(C)c5c(=O)n4C4CCC4)c4ncnc(N)c34)cc2s1` [Compound 159] gave an EC50 of under 100 nM. In turn, `Cc1cccc2cc(C(C)Nc3ncnc4[nH]cnc34)n(C(C)C)c(=O)c12` (stereo not drawn) [Compound 209] returned an EC50 of under 100 nM.

On to `Cc1cccc2cc(Cn3nc(-c4cccc(O)c4)c4c(N)ncnc43)n(-c3ccccc3Cl)c(=O)c12` [Compound 96], for which the EC50 was under 100 nM. As for `Cc1cccc2cc(Cn3nc(-c4ccc(F)c(O)c4)c4c(N)ncnc43)n(C(C)C)c(=O)c12` [Compound 67], the EC50 was under 100 nM. Turning to `Cc1ccccc1-n1c(Cn2nc(CC#N)c3c(N)ncnc32)cc2cccc(C)c2c1=O` [Compound 312], the EC50 was under 1000 nM. Next, `CCn1c(Cn2nc(-c3ccc4nc(NC(C)=O)sc4c3)c3c(N)ncnc32)cc2cccc(C)c2c1=O` [Compound 176]: under 100 nM; `Cc1ccccc1-n1c(Cn2nc(-c3ccc4nc(N)[nH]c4c3)c3c(N)ncnc32)cc2cccc(C)c2c1=O` [Compound 295]: under 100 nM; `CC(=O)Nc1nc2ccc(-c3nn(Cc4cc5cccc(F)c5c(=O)n4C(C)C)c4ncnc(N)c34)cc2s1` [Compound 158]: under 100 nM. As to `CCc1ccccc1-n1c(Cn2nc(I)c3c(N)ncnc32)cc2cccc(C)c2c1=O` [Compound 77], the EC50 was under 1000 nM. Consider `Cc1ccccc1-n1c(Cn2nc(C#N)c3c(N)ncnc32)cc2cccc(C)c2c1=O` [Compound 170], for which the EC50 was under 100 nM. With `Cc1ccccc1-n1c(Cn2nc(-c3ccc4oc(N)nc4c3)c3c(N)ncnc32)cc2cccc(C)c2c1=O` [Compound 151], the EC50 was under 100 nM. `Cc1cccc2cc(C(C)Nc3ncnc4[nH]cnc34)n(C3CC3)c(=O)c12` (stereo not drawn) [Compound 204] gave an EC50 of under 100 nM. For `CC(=O)Nc1nc2ccc(-c3nn(Cc4cc5cccc(C)c5c(=O)n4-c4ccccc4)c4ncnc(N)c34)cc2s1` [Compound 177], the concentration giving a half-maximal response (EC50) is under 100 nM. `Cc1cccc2cc(Cn3nc(-c4cccc(O)c4)c4c(N)ncnc43)n(-c3ccccc3OCCN3CCOCC3)c(=O)c12` [Compound 109]: the EC50 is under 100 nM. `CCc1ccccc1-n1c(Cn2nc(-c3cc(O)cc(F)c3)c3c(N)ncnc32)cc2cccc(C)c2c1=O` [Compound 89] gave an EC50 of under 100 nM. Turning to `CC(=O)Nc1nc2ccc(-c3nn(Cc4cc5ccccc5c(=O)n4-c4ccccc4C)c4ncnc(N)c34)cc2s1` [Compound 168], the 50% effective concentration (EC50) is under 100 nM. Take `Cc1ccccc1-n1c(Cn2nc(/C=C/C(N)=O)c3c(N)ncnc32)cc2cccc(C)c2c1=O` [Compound 174]: the EC50 was under 100 nM. In turn, `Cc1cccc2cc(Cn3nc(C#C[C@@H](C)O)c4c(N)ncnc43)n(C(C)C)c(=O)c12` [Compound 61] returned a concentration for a half-maximal effect (EC50) of under 1000 nM.

Turning to `Cc1cccc2cc(Cn3nc(-c4cc(O)cc(F)c4)c4c(N)ncnc43)n(C(C)C)c(=O)c12` [Compound 66], the EC50 was under 100 nM. The compound `Cc1cccc2cc(Cn3nc(-c4cc(O)cc(F)c4)c4c(N)ncnc43)n(-c3ccccc3C(C)C)c(=O)c12` [Compound 95] registered an EC50 of under 100 nM. Regarding `CC(C)n1c(Cn2nc(-c3cccc(O)c3)c3c(N)ncnc32)cc2ccccc2c1=O` [Compound 135], the half-maximal effective concentration (EC50) was under 1000 nM. With `CC(C)n1c(Cn2nc(-c3cc(O)cc(F)c3)c3c(N)ncnc32)cc2cccc(Cl)c2c1=O` [Compound 138], the concentration giving a half-maximal response (EC50) is under 100 nM.

The compound `Cc1ccccc1-n1c(Cn2nc(I)c3c(N)ncnc32)cc2ccccc2c1=O` [Compound 31] yielded an EC50 of under 1000 nM. With `Cc1cccc2cc([C@H](C)Nc3ncnc4[nH]cnc34)n(C(C)C)c(=O)c12` [Compound 230], the EC50 was under 100 nM. `Cc1ccccc1-n1c(Cn2nc(-c3ccc(Cl)cc3)c3c(N)ncnc32)cc2cccc(C)c2c1=O` [Compound 49] registered a 50% effective concentration (EC50) of under 10000 nM. Regarding `Cc1cccnc1-n1c(Cn2nc(Cl)c3c(N)ncnc32)cc2cccc(C)c2c1=O` [Compound 18], the EC50 was under 1000 nM.
